Molecules are shown by their SMILES.

This test relates to B. napus DH12075 microspore culture. The experiment in a line: sporophytic cell division in B. napus DH12075 microspore culture (DAPI staining). Format: cell-based, Brassica napus. Here is the method: Brassica napus L. DH12075 was used as a donor plant for microspore embryo culture. The B. napus plant growth and microspore isolation procedures were performed as described in Custers, J. B. M. (2003) “Microspore culture in rapeseed (Brassica napus L.)” in Doubled haploid production in crop plants: a manual, M. Maluszynski, K. J. Kasha, B. P. Forster, and I. Szarejko, eds (Dordrecht: Kluwer Academic Publishers), pp. 185-193. Flower buds for microspore culture were grouped by size (measured from the tip of the flower bud to the bottom of the sepal), ranging from 3.0 to 3.5 mm for DH4079 and from 2.6 to 4.0 mm for DH12075. The microspores were isolated and cultured in NLN-13 medium (see Lichter, R. (1982) […]. For induction of embryogenesis, microspores were cultured in the dark at 33° C. for 20 hours and subsequently transferred to 25° C. Non-induced microspore cultures were cultured continuously at 25° C. or 18° C. Trichostatin A (TSA, Sigma-Aldrich) was prepared in DMSO. Freshly isolated microspores were inoculated in a medium containing TSA or the same volume of DMSO as a control and cultured for 20 hours at the temperature indicated for each experiment. After this period, the cultures were centrifuged at 200 g for 3 min, resuspended in fresh NLN-13 medium without TSA, and transferred to 25° C.
The developmental stage and identity of cells in microspore and anther culture were visualized with the nuclear stain 4′, 6-diamidino-2-phenylindole (DAPI, 1.25 μg/ml according to Custers (2003) supra using a Zeiss Axioskop epifluorescence microscope with a filter set no. 02. Approximately two hundred microspores or multicellular clusters were counted for each sample. GFP was imaged using confocal laser scanning microscopy (CLSM; Leica DM5500 Q). The GFP was excited with an argon laser line at 488 nm and detected with a 505-530 nm emission filter. Samples were counterstained with DAPI or propidium iodide (10 mg/ml; Sigma-Aldrich). Propidium iodide and red autofluorescence were excited at 532 nm and detected with a 620-660 nm emission filter. GFP and DAPI were covisualized with CLSM. For CLSM, DAPI was excited at 405 nm and detected with a 440-500 nm emission filter. The optical slices were median filtered with Leica LAS AF software. Arabidopsis anthers were cleared in HCG solution (water: Chloral hydrate: glycerol; 3:8:1) for 10 min, then observed under DIC microscopy with a Nikon OPTIPHOT microscope.
Cultured microspores and pollen of B. napus genotype DH12075 were treated with the HDAC inhibitor TSA. We examined the development of microspore cultures by staining heat-stressed (hereafter referred to as control) and heat-stressed plus TSA-treated immature male gametophytes at different developmental stages with the nuclear dye, DAPI. Initial dosage experiments were used to establish the minimal exposure time (20 h) in relation to the specific phenotypes discussed below.
The developmental fate of heat-stressed control cultures and cultures exposed to both heat-stress and TSA was followed by examining older cultures in more detail. […] Heat-stressed microspores and pollen were treated with a range of TSA concentrations, and the cultures examined after five and 15 days using DAPI staining to characterize the different multicellular structures that developed.

`CC(/C=C/C(=O)NO)=C\[C@@H](C)C(=O)c1ccc(N(C)C)cc1` [TSA, trichostatin A]: for the setting “0.5 μM TSA, 33° C., treatment longer than 20 hours, counted after five days”, the “effect of duration of TSA treatment on proportion of sporophytic divisions” value was “did not further enhance or reduce”. Further, the “proportion of the population dividing sporophytically” value (heat stress plus 0.5 μM TSA, after two days of culture) was “up to 80%”. For the setting “heat stress plus 0.5 μM TSA, two days of culture”, the “sporophytically-divided cells also containing one or more generative-like nuclei” value was “approximately 10%”. In addition, the “Type IV (loose callus-like) structures” value (heat-stress and TSA, five-day-old cultures, control 0.5%) is “up to 32%”. Also, for the setting “heat-stress and TSA, five-day-old cultures, control 7%”, the “Type II (compact callus-like) structures” value is “up to 77%”. The “Type I classical embryogenic structures” value (heat-stress, 0.5 μM TSA, five days, control 0.5%) is reported as “up to 1%”. The “Type I classical embryogenic structures, abundance” value (heat-stress, ten times lower concentration of TSA than 0.5 μM) is “much more abundant”. Also, the “percentage of sporophytic divisions versus control at lower temperature” value (microspore cultures at 18 or 25° C.) is “increased percentage of sporophytic divisions”.

Values taken from patent US20210378193A1, “HAPLOID EMBRYOGENESIS” (STICHTING WAGENINGEN RESEARCH, priority 2013, published 2021).
